Details: Liquid

FCC(F)(F)F [1,1,1,2-tetrafluoroethane]
Details | vapor or sublimation pressure [kPa]
277.22 K | 339.5
279.24 K | 364
281.25 K | 389.7
283.24 K | 416.7
285.26 K | 445.4
287.27 K | 475.4
289.27 K | 506.9
291.29 K | 539.9
293.31 K | 575.1
295.3 K | 610.8
297.32 K | 649.3
299.21 K | 685.5
299.31 K | 688.7
299.34 K | 689.4
301.19 K | 726.7
301.3 K | 730
303.06 K | 767
303.19 K | 769.8
303.31 K | 773.5
305.33 K | 819.1
307.34 K | 866.6
309.35 K | 916
311.35 K | 967.3
313.31 K | 1019.3
315.36 K | 1076.9
317.32 K | 1133
319.38 K | 1195.5
321.34 K | 1256.1
329.37 K | 1532.3
335.39 K | 1767.4
337.41 K | 1851.9
339.41 K | 1939.2
341.43 K | 2029.5
343.43 K | 2123
347.44 K | 2319.8
349.46 K | 2419.4
351.46 K | 2530.3
353.48 K | 2641.1
355.48 K | 2755.4
360.48 K | 3054.3

COC [dimethyl ether]
Details | vapor or sublimation pressure [kPa]
278.25 K | 317.6
283.2 K | 373.6
288.19 K | 437.4
293.2 K | 509.4
298.19 K | 589.6
303.18 K | 679.2
303.19 K | 678.1
308.19 K | 778.7
313.2 K | 888.8
318.19 K | 1009.5
323.28 K | 1144.5
323.37 K | 1146.2
328.25 K | 1289.2
333.23 K | 1447.2
338.23 K | 1619.9
343.18 K | 1805.3
343.41 K | 1814.4
347.42 K | 1976.8
348.17 K | 2007.3
351.44 K | 2149.6
353.1 K | 2224.5
353.45 K | 2240
355.08 K | 2315.6
355.46 K | 2333.3
357.49 K | 2429.5
359.49 K | 2528.5
360.52 K | 2579.1

Reference: the NIST ThermoML archive (doi:10.1016/j.fluid.2005.01.001)
